In PMC6704710, “Preclinical evaluation of 3D185, a novel potent inhibitor of FGFR1/2/3 and CSF-1R, in FGFR-dependent and macrophage-dominant cancer models” (Journal of Experimental & Clinical Cancer Research : CR, 2019):

How the values were obtained:
Assay in all cases: Eurofins kinase panel
Format in all cases: biochemical
Conditions in all cases: read-out: Inhibition rate (%)
CDK4/cyclinD3(h) = target: T1, CDK4/cyclinD3(h) (Homo sapiens, UniProt P11802)
T1 construct: purchased Eurofins (KinaseProfiler)
T1 sequence (P11802 whole entry): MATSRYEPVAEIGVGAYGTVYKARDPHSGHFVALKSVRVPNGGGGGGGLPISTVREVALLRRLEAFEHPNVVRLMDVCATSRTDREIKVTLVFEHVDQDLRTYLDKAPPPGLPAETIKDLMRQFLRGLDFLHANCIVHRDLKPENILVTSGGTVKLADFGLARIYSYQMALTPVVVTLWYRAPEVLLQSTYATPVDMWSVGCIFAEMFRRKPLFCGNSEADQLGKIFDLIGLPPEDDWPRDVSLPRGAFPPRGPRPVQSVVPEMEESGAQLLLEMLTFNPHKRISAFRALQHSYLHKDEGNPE
T1 sequence (P30281 whole entry partner): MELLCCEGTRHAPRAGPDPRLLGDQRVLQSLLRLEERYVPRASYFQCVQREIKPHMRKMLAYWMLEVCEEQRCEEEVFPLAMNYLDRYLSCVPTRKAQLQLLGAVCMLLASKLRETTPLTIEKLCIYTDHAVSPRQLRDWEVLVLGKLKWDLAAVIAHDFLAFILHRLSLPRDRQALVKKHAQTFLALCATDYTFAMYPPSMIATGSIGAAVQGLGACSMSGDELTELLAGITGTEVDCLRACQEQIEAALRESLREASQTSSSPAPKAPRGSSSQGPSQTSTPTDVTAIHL

PDGFRα(h) = target: T2, PDGFRα(h) (Homo sapiens, UniProt P16234)
T2 construct: purchased Eurofins (KinaseProfiler)

SAPK4(h) = target: T3, SAPK4(h) (Homo sapiens, UniProt O15264)
T3 construct: purchased Eurofins (KinaseProfiler)
T3 sequence (O15264 1-365): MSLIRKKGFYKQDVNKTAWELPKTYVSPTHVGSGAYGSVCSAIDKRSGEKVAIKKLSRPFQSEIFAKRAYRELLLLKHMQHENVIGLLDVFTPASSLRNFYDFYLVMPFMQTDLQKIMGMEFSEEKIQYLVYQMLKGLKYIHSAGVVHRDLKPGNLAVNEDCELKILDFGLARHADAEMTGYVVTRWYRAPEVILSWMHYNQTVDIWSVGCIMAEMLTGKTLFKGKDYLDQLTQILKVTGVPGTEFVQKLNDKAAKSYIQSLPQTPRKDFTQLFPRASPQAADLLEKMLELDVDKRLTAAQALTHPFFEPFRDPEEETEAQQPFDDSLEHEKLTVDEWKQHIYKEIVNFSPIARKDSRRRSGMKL

PAK4(h) = target: T4, PAK4(h) (Homo sapiens, UniProt O96013)
T4 construct: purchased Eurofins (KinaseProfiler)
T4 sequence (O96013 whole entry): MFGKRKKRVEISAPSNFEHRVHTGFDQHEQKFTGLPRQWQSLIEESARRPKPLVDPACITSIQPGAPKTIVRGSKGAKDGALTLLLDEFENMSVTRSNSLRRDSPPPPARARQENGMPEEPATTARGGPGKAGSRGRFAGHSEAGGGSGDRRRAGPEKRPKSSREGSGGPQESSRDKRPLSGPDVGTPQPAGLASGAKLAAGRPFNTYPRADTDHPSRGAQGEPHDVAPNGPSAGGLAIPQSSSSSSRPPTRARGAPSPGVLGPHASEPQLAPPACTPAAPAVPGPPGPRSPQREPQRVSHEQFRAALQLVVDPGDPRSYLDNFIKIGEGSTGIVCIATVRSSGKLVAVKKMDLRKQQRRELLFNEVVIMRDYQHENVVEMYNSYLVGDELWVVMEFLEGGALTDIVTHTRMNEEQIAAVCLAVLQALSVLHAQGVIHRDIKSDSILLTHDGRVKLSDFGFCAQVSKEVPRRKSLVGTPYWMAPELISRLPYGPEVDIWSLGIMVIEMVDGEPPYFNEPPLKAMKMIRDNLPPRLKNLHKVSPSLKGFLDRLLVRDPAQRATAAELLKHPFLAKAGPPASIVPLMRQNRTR

Lck(h) = target: T5, Lck(h) (Homo sapiens, UniProt P06239)
T5 construct: purchased Eurofins (KinaseProfiler)
T5 sequence (P06239 whole entry): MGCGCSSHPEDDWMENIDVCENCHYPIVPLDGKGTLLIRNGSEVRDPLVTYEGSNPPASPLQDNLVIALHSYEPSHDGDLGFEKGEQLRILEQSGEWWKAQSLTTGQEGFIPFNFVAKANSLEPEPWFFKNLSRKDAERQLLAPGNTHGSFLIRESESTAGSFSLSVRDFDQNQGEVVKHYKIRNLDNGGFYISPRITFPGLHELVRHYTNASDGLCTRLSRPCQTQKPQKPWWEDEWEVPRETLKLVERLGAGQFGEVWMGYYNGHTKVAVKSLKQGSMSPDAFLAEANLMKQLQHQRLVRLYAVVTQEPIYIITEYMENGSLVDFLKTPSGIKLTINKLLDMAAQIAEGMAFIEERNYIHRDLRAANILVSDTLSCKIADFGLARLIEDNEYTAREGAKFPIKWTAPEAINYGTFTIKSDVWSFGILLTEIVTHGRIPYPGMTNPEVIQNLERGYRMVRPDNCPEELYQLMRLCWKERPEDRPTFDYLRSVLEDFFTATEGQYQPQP

Ron(h) = target: T6, Ron(h) (Homo sapiens, UniProt Q04912)
T6 construct: purchased Eurofins (KinaseProfiler)

SGK2(h) = target: T7, SGK2(h) (Homo sapiens, UniProt Q9HBY8)
T7 construct: purchased Eurofins (KinaseProfiler)
T7 sequence (Q9HBY8 1-367): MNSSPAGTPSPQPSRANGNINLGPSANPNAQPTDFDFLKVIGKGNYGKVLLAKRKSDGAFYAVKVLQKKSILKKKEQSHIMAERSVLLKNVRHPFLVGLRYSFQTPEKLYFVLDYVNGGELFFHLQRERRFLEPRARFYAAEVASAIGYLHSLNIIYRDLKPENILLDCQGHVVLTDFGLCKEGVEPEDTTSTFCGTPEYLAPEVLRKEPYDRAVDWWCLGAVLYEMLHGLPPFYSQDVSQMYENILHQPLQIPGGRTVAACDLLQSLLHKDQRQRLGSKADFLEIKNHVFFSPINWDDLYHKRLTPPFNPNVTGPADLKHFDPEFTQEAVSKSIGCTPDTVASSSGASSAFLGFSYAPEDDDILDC

CK2α2(h) = target: T8, CK2α2(h) (Homo sapiens, UniProt P19784)
T8 construct: purchased Eurofins (KinaseProfiler)
T8 sequence (P19784 whole entry): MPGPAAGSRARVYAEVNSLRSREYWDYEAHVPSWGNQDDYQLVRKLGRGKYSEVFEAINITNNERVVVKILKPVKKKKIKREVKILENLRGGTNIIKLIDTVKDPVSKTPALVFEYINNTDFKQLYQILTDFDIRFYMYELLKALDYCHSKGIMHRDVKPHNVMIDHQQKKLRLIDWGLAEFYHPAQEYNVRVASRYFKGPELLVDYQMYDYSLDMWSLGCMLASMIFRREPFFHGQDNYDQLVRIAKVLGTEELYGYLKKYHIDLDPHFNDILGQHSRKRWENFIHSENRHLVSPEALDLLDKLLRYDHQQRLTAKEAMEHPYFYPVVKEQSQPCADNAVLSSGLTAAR

MRCKβ(h) = target: T9, MRCKβ(h) (Homo sapiens, UniProt Q9Y5S2)
T9 construct: purchased Eurofins (KinaseProfiler)
T9 sequence (Q9Y5S2 whole entry): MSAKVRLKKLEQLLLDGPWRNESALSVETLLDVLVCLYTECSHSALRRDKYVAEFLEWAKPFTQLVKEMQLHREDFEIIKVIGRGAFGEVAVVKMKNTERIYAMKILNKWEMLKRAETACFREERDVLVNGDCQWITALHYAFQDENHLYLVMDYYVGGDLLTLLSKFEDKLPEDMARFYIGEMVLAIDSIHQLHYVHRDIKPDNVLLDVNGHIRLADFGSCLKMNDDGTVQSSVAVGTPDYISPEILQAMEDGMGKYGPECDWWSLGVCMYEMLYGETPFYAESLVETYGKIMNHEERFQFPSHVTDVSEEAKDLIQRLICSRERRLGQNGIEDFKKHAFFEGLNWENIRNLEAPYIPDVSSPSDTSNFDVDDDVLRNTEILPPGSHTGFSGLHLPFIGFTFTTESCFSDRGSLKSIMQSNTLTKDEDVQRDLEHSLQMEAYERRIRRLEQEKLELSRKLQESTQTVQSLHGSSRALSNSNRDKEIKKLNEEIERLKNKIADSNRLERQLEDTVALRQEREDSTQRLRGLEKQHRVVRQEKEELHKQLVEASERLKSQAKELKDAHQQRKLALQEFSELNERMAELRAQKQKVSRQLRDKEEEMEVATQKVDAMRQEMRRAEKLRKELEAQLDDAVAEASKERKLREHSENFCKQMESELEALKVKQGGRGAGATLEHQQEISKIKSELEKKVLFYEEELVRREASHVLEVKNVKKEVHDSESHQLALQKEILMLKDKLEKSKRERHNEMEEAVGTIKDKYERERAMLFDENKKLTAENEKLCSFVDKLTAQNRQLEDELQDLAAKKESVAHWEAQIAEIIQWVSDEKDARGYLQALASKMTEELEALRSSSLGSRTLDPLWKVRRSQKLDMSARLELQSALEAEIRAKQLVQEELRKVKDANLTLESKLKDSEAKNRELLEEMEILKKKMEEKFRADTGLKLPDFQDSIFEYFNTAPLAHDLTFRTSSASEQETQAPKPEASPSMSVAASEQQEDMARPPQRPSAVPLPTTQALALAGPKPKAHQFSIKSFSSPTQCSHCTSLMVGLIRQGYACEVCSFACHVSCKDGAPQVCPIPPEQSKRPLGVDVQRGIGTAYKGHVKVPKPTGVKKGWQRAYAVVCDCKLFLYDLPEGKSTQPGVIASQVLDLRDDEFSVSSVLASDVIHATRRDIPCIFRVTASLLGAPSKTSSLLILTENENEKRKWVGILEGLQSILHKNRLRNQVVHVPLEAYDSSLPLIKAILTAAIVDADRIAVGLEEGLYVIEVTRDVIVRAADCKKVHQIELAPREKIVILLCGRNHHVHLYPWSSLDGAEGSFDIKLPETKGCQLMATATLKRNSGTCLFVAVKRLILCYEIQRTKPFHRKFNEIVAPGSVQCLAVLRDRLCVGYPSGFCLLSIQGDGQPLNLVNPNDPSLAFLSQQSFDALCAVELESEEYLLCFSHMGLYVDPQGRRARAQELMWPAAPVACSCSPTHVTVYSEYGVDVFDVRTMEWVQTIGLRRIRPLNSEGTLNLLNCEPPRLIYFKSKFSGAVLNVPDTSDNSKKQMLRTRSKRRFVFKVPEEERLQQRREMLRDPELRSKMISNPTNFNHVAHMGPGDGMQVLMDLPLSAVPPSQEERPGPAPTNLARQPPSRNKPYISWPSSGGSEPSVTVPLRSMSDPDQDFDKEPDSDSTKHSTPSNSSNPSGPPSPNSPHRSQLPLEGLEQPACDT

Met(Y1248D)(h) = target: T10, Met(Y1248D)(h) (Homo sapiens, UniProt P08581, Y1230D)
T10 construct: purchased Eurofins (KinaseProfiler)
T10 sequence (P08581 956-1390 Y1230D limits assumed): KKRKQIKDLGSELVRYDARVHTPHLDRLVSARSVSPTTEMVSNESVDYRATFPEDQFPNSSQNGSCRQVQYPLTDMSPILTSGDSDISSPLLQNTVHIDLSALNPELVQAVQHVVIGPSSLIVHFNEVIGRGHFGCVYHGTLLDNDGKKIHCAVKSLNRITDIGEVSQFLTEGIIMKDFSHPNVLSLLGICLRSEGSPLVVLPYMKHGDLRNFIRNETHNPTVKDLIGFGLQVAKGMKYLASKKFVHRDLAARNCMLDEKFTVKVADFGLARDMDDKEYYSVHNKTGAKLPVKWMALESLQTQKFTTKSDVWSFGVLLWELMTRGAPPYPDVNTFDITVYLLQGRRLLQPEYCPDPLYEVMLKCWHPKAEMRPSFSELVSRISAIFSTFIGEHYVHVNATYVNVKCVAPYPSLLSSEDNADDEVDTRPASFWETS

Structure (SMILES): COc1cc(OC)c(Cl)c(-c2ccc3c(NC(=O)c4ccc(N5CCNC(C)(C)C5)cc4)n[nH]c3n2)c1Cl [3D185]
- inhibition at 0.01 µM (CDK4/cyclinD3(h); 10 nM): 5%
- inhibition at 0.1 µM (CDK4/cyclinD3(h); 100 nM): -4%
- inhibition at 1 µM (CDK4/cyclinD3(h); 1000 nM): 11%
- inhibition at 0.01 µM (PDGFRα(h); 10 nM): 9%
- inhibition at 0.1 µM (PDGFRα(h); 100 nM): 6%
- inhibition at 1 µM (PDGFRα(h); 1000 nM): 10%
- inhibition at 0.01 µM (SAPK4(h); 10 nM): -12%
- inhibition at 0.1 µM (SAPK4(h); 100 nM): -8%
- inhibition at 1 µM (SAPK4(h); 1000 nM): -11%
- inhibition at 0.01 µM (PAK4(h); 10 nM): -8%
- inhibition at 0.1 µM (PAK4(h); 100 nM): 0%
- inhibition at 1 µM (PAK4(h); 1000 nM): -2%
- inhibition at 0.01 µM (Lck(h); 10 nM): 22%
- inhibition at 0.1 µM (Lck(h); 100 nM): 60%
- inhibition at 1 µM (Lck(h); 1000 nM): 94%
- inhibition at 0.01 µM (Ron(h); 10 nM): -16%
- inhibition at 0.1 µM (Ron(h); 100 nM): -10%
- inhibition at 1 µM (Ron(h); 1000 nM): 28%
- inhibition at 0.01 µM (SGK2(h); 10 nM): 4%
- inhibition at 0.1 µM (SGK2(h); 100 nM): 1%
- inhibition at 1 µM (SGK2(h); 1000 nM): 26%
- inhibition at 0.01 µM (CK2α2(h); 10 nM): 0%
- inhibition at 0.1 µM (CK2α2(h); 100 nM): 1%
- inhibition at 1 µM (CK2α2(h); 1000 nM): -6%
- inhibition at 0.01 µM (MRCKβ(h); 10 nM): 18%
- inhibition at 0.1 µM (MRCKβ(h); 100 nM): 8%
- inhibition at 1 µM (MRCKβ(h); 1000 nM): 21%
- inhibition at 0.01 µM (Met(Y1248D)(h); 10 nM): -12%
- inhibition at 0.1 µM (Met(Y1248D)(h); 100 nM): -1%
- inhibition at 1 µM (Met(Y1248D)(h); 1000 nM): 18%
